This is an account of results in the supplement of paper PMC12613149.

Data set [1] can be described thus: collision cross section (TIMS, N2 drift gas) of the primary ion; higher = larger gas-phase ion size.
Data set [2] can be described thus: reversed-phase LC retention time (C18, 15 min MeOH gradient); higher = more hydrophobic / later elution.
[3] abbreviates: ionization mode: ESI+, ion species: [M+H]+.
The mark [4] stands for this setting: ionization mode: ESI-, ion species: [M-H]-.

Regarding `CN(C)[C@@H]1C(O)=C(C(N)=O)C(=O)[C@@]2(O)C(O)=C3C(=O)c4c(O)cccc4[C@@](C)(O)[C@H]3[C@H](O)[C@@H]12` [Oxytetracycline], in data set [1] (setting [3]), the collision cross section stood at 198.92 Å². Moreover, the “reversed-phase LC retention time” value in data set [2] (setting [3]) is 8.42 min.

Take `CCCCCCCCCCCCCCCC(=O)NCCO` [Palmitoylethanolamide]: in data set [1] (setting [3]), the collision cross section was determined as 193.35 Å². In addition, the “reversed-phase LC retention time” value in data set [2] (setting [3]) is 18.3 min.

`CCCC(Cn1cncn1)c1ccc(Cl)cc1Cl` (stereo unspecified) [Penconazole] had a collision cross section in data set [1] (setting [3]) of 166.33 Å². The “reversed-phase LC retention time” value in data set [2] (setting [3]) came out at 15.5 min.

In data set [1] (setting [3]), `O=C(Nc1ccccc1)N(Cc1ccc(Cl)cc1)C1CCCC1` [Pencycuron] came in with a collision cross section of 181.17 Å². Further, the “reversed-phase LC retention time” value in data set [2] (setting [3]) turned out to be 16.1 min.

In data set [1] (setting [3]), `CCC(CC)Nc1c([N+](=O)[O-])cc(C)c(C)c1[N+](=O)[O-]` [Pendimethalin] showed a collision cross section of 160.71 Å². In data set [2] (setting [3]), the “reversed-phase LC retention time” value came to 17.1 min.

Compound `COc1cnc(OC)n2nc(NS(=O)(=O)c3c(OCC(F)F)cccc3C(F)(F)F)nc12` [Penoxsulam] had a collision cross section in data set [1] (setting [3]) of 196.63 Å². Besides, the “reversed-phase LC retention time” value in data set [2] (setting [3]) came out at 12.3 min.

In data set [1] (setting [4]), `Oc1c(Cl)c(Cl)c(Cl)c(Cl)c1Cl` [Pentachlorophenol] came in with a collision cross section of 137.44 Å². Also, the “reversed-phase LC retention time” value in data set [2] (setting [4]) turned out to be 13.8 min.

As for `CCCC(C)C1(CC)C(=O)NC(=O)NC1=O` (stereo unspecified) [Pentobarbital], in data set [1] (setting [4]), the collision cross section turned out to be 150.46 Å². The “reversed-phase LC retention time” value in data set [2] (setting [4]) is 12.2 min.

As to `CC(=O)CCCCn1c(=O)c2c(ncn2C)n(C)c1=O` [Pentoxifylline], in data set [1] (setting [3]), the collision cross section is recorded as 160.14 Å². Besides, the “reversed-phase LC retention time” value in data set [2] (setting [3]) was 9.78 min.

On to `O=C(O)C(F)(F)C(F)(F)C(F)(F)OC(F)(F)F` [Perfluoro-4-methoxybutanoic acid], for which, in data set [1] (setting [4]), the collision cross section stood at 133.26 Å². Also, the “reversed-phase LC retention time” value in data set [2] (setting [4]) amounted to 11.4 min.

`O=S(=O)(O)C(F)(F)C(F)(F)C(F)(F)C(F)(F)F` [Perfluorobutanesulfonic acid]: the collision cross section in data set [1] (setting [4]) turned out to be 132.6 Å². Moreover, the “reversed-phase LC retention time” value in data set [2] (setting [4]) was found to be 11.3 min.

For `O=C(O)C(F)(F)C(F)(F)C(F)(F)C(F)(F)C(F)(F)C(F)(F)C(F)(F)C(F)(F)C(F)(F)F` [Perfluorodecanoic acid], in data set [1] (setting [4]), the collision cross section was 173.66 Å². In data set [2] (setting [4]), the “reversed-phase LC retention time” value was 16 min.

Consider `O=C(O)C(F)(F)C(F)(F)C(F)(F)C(F)(F)C(F)(F)C(F)(F)C(F)(F)C(F)(F)C(F)(F)C(F)(F)C(F)(F)F` [Perfluorododecanoic acid], for which the collision cross section in data set [1] (setting [4]) is listed as 191.62 Å². Further, the “reversed-phase LC retention time” value in data set [2] (setting [4]) was 17 min.

The compound `O=S(=O)(O)C(F)(F)C(F)(F)C(F)(F)C(F)(F)C(F)(F)C(F)(F)C(F)(F)F` [Perfluoroheptanesulfonic acid] returned a collision cross section in data set [1] (setting [4]) of 159.45 Å². The “reversed-phase LC retention time” value in data set [2] (setting [4]) is 14.7 min.

`O=C(O)C(F)(F)C(F)(F)C(F)(F)C(F)(F)C(F)(F)C(F)(F)F` [Perfluoroheptanoic acid] returned a collision cross section in data set [1] (setting [4]) of 146.98 Å². The “reversed-phase LC retention time” value in data set [2] (setting [4]) was 13.8 min.

On to `O=S(=O)(O)C(F)(F)C(F)(F)C(F)(F)C(F)(F)C(F)(F)C(F)(F)F` [Perfluorohexanesulfonic acid], for which the collision cross section in data set [1] (setting [4]) was found to be 150.32 Å². The “reversed-phase LC retention time” value in data set [2] (setting [4]) was determined as 13.9 min.

The compound `O=C(O)C(F)(F)C(F)(F)C(F)(F)C(F)(F)C(F)(F)F` [Perfluorohexanoic acid] displayed a collision cross section in data set [1] (setting [4]) of 138.14 Å². Besides, the “reversed-phase LC retention time” value in data set [2] (setting [4]) is 12.6 min.

As for `O=P(O)(O)C(F)(F)C(F)(F)C(F)(F)C(F)(F)C(F)(F)C(F)(F)F` [Perfluorohexyl phosphonic acid], the collision cross section in data set [1] (setting [4]) was found to be 152.3 Å². For the same compound, the “reversed-phase LC retention time” value in data set [2] (setting [4]) turned out to be 10.5 min.

In data set [1] (setting [4]), `O=C(O)C(F)(F)C(F)(F)C(F)(F)C(F)(F)C(F)(F)C(F)(F)C(F)(F)C(F)(F)F` [Perfluorononanoic acid] had a collision cross section of 164.37 Å². Besides, in data set [2] (setting [4]), the “reversed-phase LC retention time” value was 15.4 min.

In data set [1] (setting [4]), `NS(=O)(=O)C(F)(F)C(F)(F)C(F)(F)C(F)(F)C(F)(F)C(F)(F)C(F)(F)C(F)(F)F` [Perfluorooctanesulfonamide] displayed a collision cross section of 169.81 Å². In addition, the “reversed-phase LC retention time” value in data set [2] (setting [4]) came out at 15.7 min.

For `O=S(=O)(O)C(F)(F)C(F)(F)C(F)(F)C(F)(F)C(F)(F)C(F)(F)C(F)(F)C(F)(F)F` [Perfluorooctanesulfonic acid], the collision cross section in data set [1] (setting [4]) is 169.04 Å². Further, in data set [2] (setting [4]), the “reversed-phase LC retention time” value was 15.4 min.

In data set [1] (setting [4]), `O=C(O)C(F)(F)C(F)(F)C(F)(F)C(F)(F)C(F)(F)C(F)(F)C(F)(F)F` [Perfluorooctanoic acid] returned a collision cross section of 155.67 Å². Besides, the “reversed-phase LC retention time” value in data set [2] (setting [4]) is 14.7 min.

In data set [1] (setting [4]), `O=S(=O)(O)C(F)(F)C(F)(F)C(F)(F)C(F)(F)C(F)(F)F` [Perfluoropentanesulfonic acid] showed a collision cross section of 141.48 Å². The “reversed-phase LC retention time” value in data set [2] (setting [4]) stood at 12.8 min.

In turn, `O=C(O)C(F)(F)C(F)(F)C(F)(F)C(F)(F)F` [Perfluoropentanoic acid] displayed a collision cross section in data set [1] (setting [4]) of 129.75 Å². In addition, the “reversed-phase LC retention time” value in data set [2] (setting [4]) worked out at 10.9 min.

With `O=C(O)C(F)(F)C(F)(F)C(F)(F)C(F)(F)C(F)(F)C(F)(F)C(=O)O` [Perfluorosuberic acid], the collision cross section in data set [1] (setting [4]) is reported as 143.37 Å². Further, the “reversed-phase LC retention time” value in data set [2] (setting [4]) is 6.68 min.

As to `O=C(O)C(F)(F)C(F)(F)C(F)(F)C(F)(F)C(F)(F)C(F)(F)C(F)(F)C(F)(F)C(F)(F)C(F)(F)C(F)(F)C(F)(F)C(F)(F)F` [Perfluorotetradecanoic acid], in data set [1] (setting [4]), the collision cross section is 209.23 Å². The “reversed-phase LC retention time” value in data set [2] (setting [4]) is 17.6 min.

As for `O=C(O)C(F)(F)C(F)(F)C(F)(F)C(F)(F)C(F)(F)C(F)(F)C(F)(F)C(F)(F)C(F)(F)C(F)(F)F` [Perfluoroundecanoic acid], in data set [1] (setting [4]), the collision cross section is 182.71 Å². In data set [2] (setting [4]), the “reversed-phase LC retention time” value came out at 16.5 min.

As for `CCOCCN(C(=O)CCl)C(=C(C)C)c1ccccc1` [Pethoxamid], the collision cross section in data set [1] (setting [3]) worked out at 166.72 Å². Besides, the “reversed-phase LC retention time” value in data set [2] (setting [3]) came to 14.9 min.

Take `Cc1cc(=O)n(-c2ccccc2)n1C` [Phenazone]: in data set [1] (setting [3]), the collision cross section was 138.2 Å². In data set [2] (setting [3]), the “reversed-phase LC retention time” value came to 8.8 min.

For the compound `O=S(=O)(O)c1ccc2[nH]c(-c3ccccc3)nc2c1` [Phenylbenzimidazole sulfonic acid], the values for the collision cross section in data set [1] (setting [3]) and in data set [1] (setting [4]) were 166.31 Å² and 167.47 Å², respectively. The “reversed-phase LC retention time” value is 7.17 min in data set [2] (setting [3]) and 8.23 min in data set [2] (setting [4]).

As for `CCC(C(N)=O)(C(N)=O)c1ccccc1` [Phenylethylmalonamide], in data set [1] (setting [3]), the collision cross section was found to be 142.07 Å². Further, in data set [2] (setting [3]), the “reversed-phase LC retention time” value amounted to 7.73 min.

The compound `O=C1NC(=O)C(c2ccccc2)(c2ccccc2)N1` [Phenytoin] returned a collision cross section in data set [1] (setting [3]) of 162.42 Å². Besides, in data set [2] (setting [3]), the “reversed-phase LC retention time” value is 11.9 min.

As to `O=C(CCc1ccc(O)cc1)c1c(O)cc(O)cc1O` [Phloretin], the values for the collision cross section in data set [1] (setting [3]) and in data set [1] (setting [4]) were 163.11 Å² and 163.45 Å², respectively. For the same compound, the “reversed-phase LC retention time” value in data set [2] (setting [3]) was 11.9 min; in data set [2] (setting [4]), 10.6 min.

As for `O=C(Nc1ccc(F)cc1)c1cccc(Oc2cccc(C(F)(F)F)c2)n1` [Picolinafen], the results for the collision cross section in data set [1] (setting [3]) and in data set [1] (setting [4]) were 189.81 Å² and 186.89 Å², respectively. The “reversed-phase LC retention time” value was found to be 16.8 min in data set [2] (setting [3]) and 17.2 min in data set [2] (setting [4]).

`CO/C=C(/C(=O)OC)c1ccccc1COc1cccc(C(F)(F)F)n1` [Picoxystrobin] came in with a collision cross section in data set [1] (setting [3]) of 174.95 Å². Further, in data set [2] (setting [3]), the “reversed-phase LC retention time” value came to 15.2 min.
